From patent US4205170A, “Propionic acid derivatives” (priority 1976, dated 1980)
Where two headings read alike, the source gives them in different places.

Tested on: edema in the hind paws (carrageenan)
Assay: carrageenan-induced hind paw edema, oral administration
Format: in vivo, male Wistar rats
Conditions: Rattus norvegicus; for inhibition in vivo at 5 mg/kg: 5 mg/kg orally; for inhibition in vivo at 8 mg/kg: 8 mg/kg orally
Method: That is, male Wistar rats weighing about 100 g, one group consisting of 5 to 7 animals, were given orally the compounds according to the present invention and then edema was induced in the hind paws by subcutaneous injections of 0.1 ml of 1% carrageenan 1 hour after the administration of the test compounds, and the volumes of the hind paws were measured by a volume differential meter.

[1] = 10 mg/kg orally, 1 hr, read-out: Inhibition (%) 1 hr
[2] = 10 mg/kg orally, 2 hr, read-out: Inhibition (%) 2 hr
[3] = 10 mg/kg orally, 3 hr, read-out: Inhibition (%) 3 hr
[4] = 10 mg/kg orally, 4 hr, read-out: Inhibition (%) 4 hr
[5] = 10 mg/kg orally, 5 hr, read-out: Inhibition (%) 5 hr
[6] = 10 mg/kg orally, 6 hr, read-out: Inhibition (%) 6 hr
[7] = 1 hr, read-out: Inhibition (%) 1 hr
[8] = 2 hr, read-out: Inhibition (%) 2 hr
[9] = 3 hr, read-out: Inhibition (%) 3 hr
[10] = 4 hr, read-out: Inhibition (%) 4 hr
[11] = 5 hr, read-out: Inhibition (%) 5 hr
[12] = 6 hr, read-out: Inhibition (%) 6 hr
[13] = 1 h, read-out: Inhibition (%) 1 hr
[14] = 2 h, read-out: Inhibition (%) 2 hr
[15] = 3 h, read-out: Inhibition (%) 3 hr
[16] = 4 h, read-out: Inhibition (%) 4 hr
[17] = 5 h, read-out: Inhibition (%) 5 hr
[18] = 6 h, read-out: Inhibition (%) 6 hr

| SMILES | inhibition in vivo at 10 mg/kg [1] [%] | inhibition in vivo at 10 mg/kg [2] [%] | inhibition in vivo at 10 mg/kg [3] [%] | inhibition in vivo at 10 mg/kg [4] [%] | inhibition in vivo at 10 mg/kg [5] [%] | inhibition in vivo at 10 mg/kg [6] [%] | also measured |
| --- | --- | --- | --- | --- | --- | --- | --- |
| CC(C(=O)O)c1ccc2c(c1)Oc1ccccc1CC2=O (stereo not drawn) [Compound 16, 2-(10,11-dihydro-11-oxodibenzo[b,f]oxepin-3-yl)-propionic acid] | 53.6 | 49.9 | 50.7 | 46.2 | 37 | 26.2 |  |
| CCOC(=O)C(C)c1ccc2c(c1)Sc1ncccc1CC2 (stereo not drawn) [Compound 25, Ethyl 2-(5,6-dihydrobenzo[b]pyrido[3,2-f]thiepin-9-yl)-propionate] | 42.8 | 57.7 | 61 | 52.7 | 33.4 | 29.2 |  |
| CCOC(=O)C(C)c1ccc2c(c1)CCc1cccnc1O2 (stereo not drawn) [Compound 28] |  |  |  |  |  |  | inhibition in vivo at 5 mg/kg [7]: 11.7%; inhibition in vivo at 5 mg/kg [8]: 35.1%; inhibition in vivo at 5 mg/kg [9]: 50.9%; inhibition in vivo at 5 mg/kg [10]: 55.4%; inhibition in vivo at 5 mg/kg [11]: 47.1%; inhibition in vivo at 5 mg/kg [12]: 37.7% |
| CC(C(=O)O)c1ccc2c(c1)C(=O)Cc1ccccc1S2 (stereo not drawn) [Compound 2, 2-(10,11-dihydro-11-oxodibenzo[b,f]thiepin-2-yl)-propionic acid] |  |  |  |  |  |  | inhibition in vivo at 1 mg/kg [13]: 53.8%; inhibition in vivo at 10 mg/kg [13]: 55%; inhibition in vivo at 1 mg/kg [14]: 57.3%; inhibition in vivo at 10 mg/kg [14]: 76.3%; inhibition in vivo at 1 mg/kg [15]: 70.9%; inhibition in vivo at 10 mg/kg [15]: 78%; inhibition in vivo at 1 mg/kg [16]: 69.6%; inhibition in vivo at 10 mg/kg [16]: 78.5%; inhibition in vivo at 1 mg/kg [17]: 68.7%; inhibition in vivo at 10 mg/kg [17]: 74.8%; inhibition in vivo at 1 mg/kg [18]: 65.6%; inhibition in vivo at 10 mg/kg [18]: 70% |
| CC(C(=O)O)c1ccc2c(c1)Sc1ccccc1CC2 (stereo not drawn) [Compound 9, 2-(10,11-dihydrodibenzo[b,f]thiepin-3-yl)-propionic acid] | 52.1 | 41 | 27.5 | 21.3 | 16.6 | 16.3 |  |
| CCOC(=O)C(C)c1ccc2c(c1)CCc1ccccc1S2 (stereo not drawn) [Compound 5, Ethyl 2-(10,11-dihydrodibenzo[b,f]thiepin-2-yl)-propionate] | 56.6 | 68 | 67.4 | 52.2 | 38.7 | 29.3 |  |
| CC(C(=O)O)c1ccc2c(c1)C(=O)Cc1cccnc1S2 (stereo not drawn) [Compound 20, 2-(5,6-dihydro-6-oxobenzo[b]pyrido[3,2-f]thiepin-8-yl)-propionic acid] | 45 | 54.3 | 47.5 | 33.8 | 28.9 | 24.3 |  |
| CC(C(=O)O)c1ccc2c(c1)CCc1ccccc1S2 (stereo not drawn) [Compound 4, 2-(10,11-dihydrodibenzo[b,f]thiepin-2-yl)-propionic acid] | 47.2 | 58.8 | 54.6 | 48.3 | 41 | 35 |  |
| CC(C(=O)O)c1cccc2c1Oc1ccccc1CC2=O (stereo not drawn) [Compound 18, 2-(10,11-dihydro-11-oxodibenzo[b,f]oxepin-4-yl)-propionic acid] |  |  |  |  |  |  | inhibition in vivo at 8 mg/kg [7]: 34.3%; inhibition in vivo at 8 mg/kg [8]: 36.4%; inhibition in vivo at 8 mg/kg [9]: 38.3%; inhibition in vivo at 8 mg/kg [10]: 36.1%; inhibition in vivo at 8 mg/kg [11]: 36.1%; inhibition in vivo at 8 mg/kg [12]: 35.1% |
| CC(C(=O)O)c1ccc2c(c1)C(=O)Cc1ccccc1O2 (stereo not drawn) [Compound 12, 2-(10,11-dihydro-11-oxodibenzo[b,f]oxepin-2-yl)-propionic acid] |  |  |  |  |  |  | inhibition in vivo at 10 mg/kg [13]: 34.2%; inhibition in vivo at 10 mg/kg [14]: 58.3%; inhibition in vivo at 10 mg/kg [15]: 79.4%; inhibition in vivo at 10 mg/kg [16]: 83.1%; inhibition in vivo at 10 mg/kg [17]: 71.1%; inhibition in vivo at 10 mg/kg [18]: 51.4% |
| O=C(O)c1ccccc1Nc1cccc(C(F)(F)F)c1 [Flufenamic acid, reference compound] | -2.9 | 23.9 | 26.8 | 29.5 | 23.8 | 15.4 | inhibition in vivo at 5 mg/kg [7]: 6.8%; inhibition in vivo at 5 mg/kg [8]: 25.9%; inhibition in vivo at 5 mg/kg [9]: 26.2%; inhibition in vivo at 5 mg/kg [10]: 25.3%; inhibition in vivo at 5 mg/kg [11]: 16%; inhibition in vivo at 5 mg/kg [12]: 10.6% |
| CC(C(=O)O)c1cccc2c1Oc1ccccc1CC2 (stereo not drawn) [Compound 19, 2-(10,11-dihydrodibenzo[b,f]oxepin-4-yl)-propionic acid] | 45.1 | 51.3 | 28.2 | 25.1 | 18.7 | 10.2 |  |
| COc1ccc2c(c1)c(CC(=O)O)c(C)n2C(=O)c1ccc(Cl)cc1 [Indomethacin, reference compound] | 64.4 | 59.8 | 52.1 | 63.8 | 54.4 | 50.3 | inhibition in vivo at 1 mg/kg (1 mg/kg orally, 1 hr, read-out: Inhibition (%) 1 hr): 21.6%; inhibition in vivo at 1 mg/kg (1 mg/kg orally, 2 hr, read-out: Inhibition (%) 2 hr): 39.6%; inhibition in vivo at 1 mg/kg (1 mg/kg orally, 3 hr, read-out: Inhibition (%) 3 hr): 29.9%; inhibition in vivo at 1 mg/kg (1 mg/kg orally, 4 hr, read-out: Inhibition (%) 4 hr): 36.4%; inhibition in vivo at 1 mg/kg (1 mg/kg orally, 5 hr, read-out: Inhibition (%) 5 hr): 28.9%; inhibition in vivo at 1 mg/kg (1 mg/kg orally, 6 hr, read-out: Inhibition (%) 6 hr): 28.7%; inhibition in vivo at 5 mg/kg [7]: 38.3%; inhibition in vivo at 5 mg/kg [8]: 51.7%; inhibition in vivo at 5 mg/kg [9]: 59.2%; inhibition in vivo at 5 mg/kg [10]: 58.4%; inhibition in vivo at 5 mg/kg [11]: 48.7%; inhibition in vivo at 5 mg/kg [12]: 41% |
| CC(C(N)=O)c1ccc2c(c1)CCc1cccnc1O2 (stereo not drawn) [Compound 29, 2-(5,6-dihydrobenzo[b]pyrido[3,2-f]oxepin-8-yl)-propionamide] |  |  |  |  |  |  | inhibition in vivo at 5 mg/kg [7]: 18.1%; inhibition in vivo at 5 mg/kg [8]: 38.3%; inhibition in vivo at 5 mg/kg [9]: 53.5%; inhibition in vivo at 5 mg/kg [10]: 53.8%; inhibition in vivo at 5 mg/kg [11]: 46.2%; inhibition in vivo at 5 mg/kg [12]: 42.9% |
